Data as given in BindingDB's records for PubMed 34699207 (National Institute On Drug Abuse?Intramural Research Program, 2021).

Key:
D(2) dopamine receptor = D(2) dopamine receptor (Homo sapiens, UniProt P14416); assay: Displacement of [3H]-(R)-(+)7-OH-DPAT from human dopamine D2 receptor expressed in HEK293 cell membranes incubated for 90 mins by microbeta scintillation counting analysis
D(3) dopamine receptor = D(3) dopamine receptor (Homo sapiens, UniProt P35462); assay: Displacement of [3H]-(R)-(+)7-OH-DPAT from human dopamine D3 receptor expressed in HEK293 cell membranes incubated for 90 mins by microbeta scintillation counting analysis
Sequence of D(3) dopamine receptor (P35462 whole entry): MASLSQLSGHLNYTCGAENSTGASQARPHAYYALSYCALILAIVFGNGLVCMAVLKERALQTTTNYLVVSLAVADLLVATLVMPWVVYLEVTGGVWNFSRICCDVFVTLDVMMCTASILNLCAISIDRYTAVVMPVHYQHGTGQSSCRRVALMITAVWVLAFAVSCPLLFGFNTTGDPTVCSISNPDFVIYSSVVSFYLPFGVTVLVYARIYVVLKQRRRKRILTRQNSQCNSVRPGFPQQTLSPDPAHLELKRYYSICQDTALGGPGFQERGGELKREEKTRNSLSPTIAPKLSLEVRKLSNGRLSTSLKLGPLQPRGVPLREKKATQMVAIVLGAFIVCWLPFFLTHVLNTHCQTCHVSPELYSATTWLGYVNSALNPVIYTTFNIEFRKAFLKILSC

Sequence of D(2) dopamine receptor (P14416 whole entry): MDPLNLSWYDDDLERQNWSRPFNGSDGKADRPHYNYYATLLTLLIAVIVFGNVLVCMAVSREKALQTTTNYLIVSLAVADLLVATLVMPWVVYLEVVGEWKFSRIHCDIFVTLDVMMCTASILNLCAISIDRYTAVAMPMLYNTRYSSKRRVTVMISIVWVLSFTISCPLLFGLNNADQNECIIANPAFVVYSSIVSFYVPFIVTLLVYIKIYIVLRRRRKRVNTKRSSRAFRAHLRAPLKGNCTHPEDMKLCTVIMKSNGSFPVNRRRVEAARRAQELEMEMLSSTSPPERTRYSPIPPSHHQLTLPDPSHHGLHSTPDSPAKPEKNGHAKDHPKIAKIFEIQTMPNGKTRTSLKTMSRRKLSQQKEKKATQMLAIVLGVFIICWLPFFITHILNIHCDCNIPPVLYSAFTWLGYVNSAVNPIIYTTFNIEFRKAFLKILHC

| Ki (D(2) dopamine receptor) [nM] | Ki (D(3) dopamine receptor) [nM] | Compound |
| --- | --- | --- |
| 2 | 20 | CN(CC[C@@H]1CC[C@H](CNC(=O)c2cc3ccccc3[nH]2)C1)[C@@H]1Cc2cccc3[nH]c(=O)n(c23)C1 |
| 4.6 | 77 | CN(CC[C@@H]1CC[C@@H](CNC(=O)c2cc3ccccc3[nH]2)C1)[C@@H]1Cc2cccc3[nH]c(=O)n(c23)C1 |
